Where only a bound is given, the exact number is not on record here.

The target in experiment [1] is T1, Glycogen synthase kinase-3 beta (Homo sapiens, UniProt P49841). Description: Inhibition of human Glycogen synthase kinase-3 beta (GSK3-beta) at 100 uM ATP.
Experiment [2] deals with T1, Glycogen synthase kinase-3 beta.
Description: Inhibitory activity against human glycogen synthase kinase-3beta (GSK3-beta) at 100 uM ATP
Experiment [3] has the same target. It is filed as functional, cell-based, Cricetulus griseus, CHO.
Description: Stimulation of glycogen synthase in CHO cells expressing human insulin receptor
Experiment [4] shares this target. The experiment is classed as functional, cell-based, Cricetulus griseus, CHO-hIR.
In experiment [5] the target is Cyclin-dependent kinase 2/cyclin A (Homo sapiens, UniProt P24941). Description: Inhibition of Cyclin-dependent kinase 2-cyclin A. It is filed as protein-complex assay.

T1 sequence (P49841 whole entry): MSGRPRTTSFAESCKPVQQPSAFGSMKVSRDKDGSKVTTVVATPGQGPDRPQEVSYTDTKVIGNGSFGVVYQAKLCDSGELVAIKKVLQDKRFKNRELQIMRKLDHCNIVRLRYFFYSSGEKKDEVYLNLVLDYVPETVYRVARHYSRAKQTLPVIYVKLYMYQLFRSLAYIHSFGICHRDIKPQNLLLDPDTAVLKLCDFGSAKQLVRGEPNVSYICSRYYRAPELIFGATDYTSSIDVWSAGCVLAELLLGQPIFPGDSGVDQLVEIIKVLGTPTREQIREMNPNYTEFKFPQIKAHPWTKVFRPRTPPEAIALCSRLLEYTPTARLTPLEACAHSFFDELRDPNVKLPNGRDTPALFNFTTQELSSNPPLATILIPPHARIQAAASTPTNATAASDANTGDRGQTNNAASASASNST

For the compound `CCN(CC)Cc1c(C(=O)NN)nnn1-c1nonc1N`, in experiment [1], half-maximal inhibition (IC50) was put at 17 µM. Turning to `Nc1nonc1-n1nnc(C(=O)NCc2ccncc2)c1CN1CCCCC1`, the IC50 (commonly the point on the concentration scale where inhibition reaches its midpoint) in experiment [2] stood at 9.3 µM.

As to `CN(C)Cc1c(-c2n[nH]c(-c3ccncc3)n2)nnn1-c1nonc1N`, in experiment [2], the midpoint of inhibition, the IC50, lay at 6.92 µM.

On to `Nc1nonc1-n1nnc(C(=O)NCCc2ccncc2)c1CN1CCCC1`, for which the IC50 in experiment [2] was 2.1 µM. With `Nc1nonc1-n1nnc(C(=O)NCCc2ccncc2)c1CN1CCCCC1`, the EC50 (commonly the concentration that produces a half-maximal response) in experiment [3] is 19.1 µM; in experiment [4], 57.5 µM. The IC50 in experiment [5] was found to be 119 µM; in experiment [2], 1.16 µM. The compound `Nc1nonc1-n1nnc(C(=O)N/N=C/c2ccncc2)c1CN1CCCC1` yielded an IC50 in experiment [2] of 0.1 µM. In turn, `CN(CCc1ccncc1)C(=O)c1nnn(-c2nonc2N)c1CN1CCCCC1` registered a half-maximal inhibitory concentration (IC50) in experiment [2] greater than 250 µM. Compound `CC(C)CNCc1c(C(=O)NCc2ccncc2)nnn1-c1nonc1N` came in with an IC50 in experiment [2] greater than 250 µM.

As to `NNC(=O)c1nnn(-c2nonc2N)c1CN1CCCCC1`, it took 9.6 µM to reach half-maximal inhibition in experiment [2] (IC50).

`CCN(CC)Cc1c(C(=O)N/N=C/c2ccncc2)nnn1-c1nonc1N` returned a concentration for half-maximal inhibition (IC50) in experiment [2] of 0.41 µM. This IC50 lies about 23-fold lower than the previous one.

Take `CCN(CC)Cc1c(C(=O)NCCc2ccncc2)nnn1-c1nonc1N`: in experiment [2], the IC50 was 11.7 µM. On the same count and under the same terms, next, `Nc1nonc1-n1nnc(-c2n[nH]c(-c3ccncc3)n2)c1CN1CCCC1`: 0.24 µM.

On to `Nc1nonc1-n1nnc(C(=O)N/N=C/c2ccncc2)c1CN1CCCCC1`, for which the results for the EC50 in experiment [3] and in experiment [4] were 2.85 µM and 4.54 µM, respectively. Further, the values for the IC50 in experiment [5] and in experiment [2] were 96 µM and 0.1 µM, respectively.

Consider `Nc1nonc1-n1nnc(-c2nnc(-c3ccncc3)[nH]2)c1CN1CCCCC1`, for which the EC50 in experiment [3] was 1.85 µM; in experiment [4], 11.1 µM. The values for the IC50 in experiment [5] and in experiment [2] were greater than 250 µM and 0.28 µM, respectively.

The values above are taken from ChEMBL document CHEMBL1145856, “Synthesis and in vitro characterization of 1-(4-aminofurazan-3-yl)-5-dialkylaminomethyl-1H-[1,2,3]triazole-4-carboxylic acid derivatives. A new class of selective GSK-3 inhibitors” (J Med Chem, 2003).
